We go through seven compounds from ChEMBL document CHEMBL1208720, “N-Benzylsalicylthioamides as novel compounds with promising antimycotic activity” (2010).

Structures are written as SMILES. Values after ≈ are worked out from the molar mass of the structure shown.

Holding throughout (format): functional
The test system of assay [1] is Trichophyton mentagrophytes. Description: Antifungal activity against Trichophyton mentagrophytes 445 after 120 hrs by broth microdilution assay. To be noted: Trichophyton mentagrophytes, 445, 120 h. (In general: In broth dilution the organism is exposed to a series of concentrations in liquid medium.)
Assay [2] has as its system Lichtheimia corymbifera. Put plainly: Antifungal activity against Absidia corymbifera 272 after 24 hrs by broth microdilution assay. To be noted: Lichtheimia corymbifera, 272, 24 h.
The subject of assay [3] is Pichia kudriavzevii. Description: Antifungal activity against Candida krusei E28 after 48 hrs by broth microdilution assay. The conditions noted are these: Pichia kudriavzevii, E28, 48 h.
Assay [4] has as its system Candida tropicalis. Put plainly: Antifungal activity against Candida tropicalis 159 after 24 hrs by broth microdilution assay. To be noted: Candida tropicalis, 159, 24 h.
For assay [5], the system named is Candida albicans. Description: Antifungal activity against Candida albicans ATCC 44859 after 24 hrs by broth microdilution assay. The conditions noted are these: Candida albicans, ATCC 44859, 24 h.
Assay [6] concerns Nakaseomyces glabratus. Put plainly: Antifungal activity against Candida glabrata 20/I after 24 hrs by broth microdilution assay. To be noted: Nakaseomyces glabratus, 20/I, 24 h.
Assay [7] relates to Aspergillus fumigatus. Put plainly: Antifungal activity against Aspergillus fumigatus 231 after 24 hrs by broth microdilution assay. The conditions noted are these: Aspergillus fumigatus, 231, 24 h.
Assay [8] deals with Aspergillus fumigatus. Put plainly: Antifungal activity against Aspergillus fumigatus 231 after 48 hrs by broth microdilution assay. The conditions noted are these: Aspergillus fumigatus, 231, 48 h.
The subject of assay [9] is Trichosporon asahii. Description: Antifungal activity against Trichosporon asahii 1188 after 24 hrs by broth microdilution assay. The conditions noted are these: Trichosporon asahii, 1188, 24 h.
The test system of assay [10] is Candida albicans. Description: Antifungal activity against Candida albicans ATCC 44859 after 48 hrs by broth microdilution assay. The conditions noted are these: Candida albicans, ATCC 44859, 48 h.
The test system of assay [11] is Pichia kudriavzevii. Description: Antifungal activity against Candida krusei E28 after 24 hrs by broth microdilution assay. The conditions noted are these: Pichia kudriavzevii, E28, 24 h.
The subject of assay [12] is Nakaseomyces glabratus. Description: Antifungal activity against Candida glabrata 20/I after 48 hrs by broth microdilution assay. To be noted: Nakaseomyces glabratus, 20/I, 48 h.
In assay [13] the test system is Lichtheimia corymbifera. Put plainly: Antifungal activity against Absidia corymbifera 272 after 48 hrs by broth microdilution assay. To be noted: Lichtheimia corymbifera, 272, 48 h.
Assay [14] concerns Trichosporon asahii. Description: Antifungal activity against Trichosporon asahii 1188 after 48 hrs by broth microdilution assay. To be noted: Trichosporon asahii, 1188, 48 h.
Assay [15] relates to Trichophyton mentagrophytes. Description: Antifungal activity against Trichophyton mentagrophytes 445 after 72 hrs by broth microdilution assay. The conditions noted are these: Trichophyton mentagrophytes, 445, 72 h.
Assay [16] concerns Candida tropicalis. Put plainly: Antifungal activity against Candida tropicalis 159 after 48 hrs by broth microdilution assay. To be noted: Candida tropicalis, 159, 48 h.

Broadly, the MIC is the lowest concentration that inhibits growth of the organism. Regarding `OC(Cn1cncn1)(Cn1cncn1)c1ccc(F)cc1F` [FLUCONAZOLE], the MIC in assay [1] is 26 µM (≈ 7.96 µg/mL); in [2], greater than 50 µM; in assay [3], greater than 50 µM; in [4], 3 µM (≈ 0.919 µg/mL); in assay [5], 1 µM (≈ 0.306 µg/mL); in assay [6] it was 22 µM (≈ 6.74 µg/mL). Further, the MIC was greater than 50 µM in assay [7]; greater than 50 µM in assay [8]; 4 µM (≈ 1.23 µg/mL) in [9]; 2 µM (≈ 0.613 µg/mL) in [10]; greater than 50 µM in assay [11]; greater than 50 µM in assay [12]. Also, the MIC in assay [13] was greater than 50 µM; in [14], 9 µM (≈ 2.76 µg/mL); in [15] it was 17 µM (≈ 5.21 µg/mL); in [16] it was 5 µM (≈ 1.53 µg/mL).
Take `Oc1ccc(Br)cc1C(=S)NCc1ccc(Br)cc1`: the MIC in [1] came to 31.2 µM (≈ 12.5 µg/mL); in [2], 3.9 µM (≈ 1.56 µg/mL); in assay [3] it was 15.6 µM (≈ 6.27 µg/mL); in assay [4], 31.2 µM (≈ 12.5 µg/mL); in assay [5] it was 15.6 µM (≈ 6.27 µg/mL); in [6], 31.2 µM (≈ 12.5 µg/mL). The MIC in [7] stood at 15.6 µM (≈ 6.27 µg/mL); in assay [8], 15.6 µM (≈ 6.27 µg/mL); in [9], 3.9 µM (≈ 1.56 µg/mL); in [10], 31.2 µM (≈ 12.5 µg/mL); in [11], 3.9 µM (≈ 1.56 µg/mL); in assay [12], 125 µM (≈ 50.1 µg/mL). For the same compound, the MIC turned out to be 3.9 µM (≈ 1.56 µg/mL) in assay [13], 7.81 µM (≈ 3.13 µg/mL) in assay [14], 15.6 µM (≈ 6.27 µg/mL) in [15] and 31.2 µM (≈ 12.5 µg/mL) in assay [16].
On to `Oc1ccccc1C(=S)NCc1ccc(Cl)c(Cl)c1`, for which the MIC in [1] worked out at 15.6 µM (≈ 4.88 µg/mL); in [2], 7.81 µM (≈ 2.44 µg/mL); in assay [3], 31.2 µM (≈ 9.76 µg/mL); in assay [4] it was 31.2 µM (≈ 9.76 µg/mL); in [5], 15.6 µM (≈ 4.88 µg/mL); in assay [6] it was 31.2 µM (≈ 9.76 µg/mL). The MIC in assay [7] turned out to be 15.6 µM (≈ 4.88 µg/mL); in [8], 31.2 µM (≈ 9.76 µg/mL); in [9], 15.6 µM (≈ 4.88 µg/mL); in assay [10], 31.2 µM (≈ 9.76 µg/mL); in [11], 15.6 µM (≈ 4.88 µg/mL); in [12], 31.2 µM (≈ 9.76 µg/mL). For the same compound, the MIC in [13] stood at 15.6 µM (≈ 4.88 µg/mL); in assay [14], 15.6 µM (≈ 4.88 µg/mL); in assay [15] it was 7.81 µM (≈ 2.44 µg/mL); in [16] it was 31.2 µM (≈ 9.76 µg/mL).
For the compound `Oc1ccccc1C(=S)NCc1ccc(F)cc1`, the minimum inhibitory concentration (MIC) in assay [1] came to 31.2 µM (≈ 8.17 µg/mL); in [2], 15.6 µM (≈ 4.08 µg/mL); in assay [3], 125 µM (≈ 32.7 µg/mL); in [4], 125 µM (≈ 32.7 µg/mL); in assay [5] it was 62.5 µM (≈ 16.3 µg/mL); in assay [6], 125 µM (≈ 32.7 µg/mL). Moreover, the MIC came out at 62.5 µM (≈ 16.3 µg/mL) in assay [7]; 62.5 µM (≈ 16.3 µg/mL) in [8]; 31.2 µM (≈ 8.17 µg/mL) in assay [9]; 125 µM (≈ 32.7 µg/mL) in assay [10]; 62.5 µM (≈ 16.3 µg/mL) in assay [11]; 250 µM (≈ 65.3 µg/mL) in assay [12]. Besides, the MIC was found to be 31.2 µM (≈ 8.17 µg/mL) in assay [13], 62.5 µM (≈ 16.3 µg/mL) in assay [14], 7.81 µM (≈ 2.04 µg/mL) in [15] and 250 µM (≈ 65.3 µg/mL) in assay [16].
On to `COc1ccc(C(=S)NCc2ccccc2)c(O)c1`, for which the MIC in assay [1] was 62.5 µM (≈ 17.1 µg/mL); in assay [2], 62.5 µM (≈ 17.1 µg/mL); in [3], 250 µM (≈ 68.3 µg/mL); in [4], 250 µM (≈ 68.3 µg/mL); in [5] it was 62.5 µM (≈ 17.1 µg/mL); in assay [6], 500 µM (≈ 137 µg/mL). The MIC was 250 µM (≈ 68.3 µg/mL) in [7]; 500 µM (≈ 137 µg/mL) in assay [8]; 250 µM (≈ 68.3 µg/mL) in assay [9]; 250 µM (≈ 68.3 µg/mL) in [10]; 250 µM (≈ 68.3 µg/mL) in assay [11]; 500 µM (≈ 137 µg/mL) in assay [12]. In addition, the MIC in [13] came to 250 µM (≈ 68.3 µg/mL); in assay [14], 250 µM (≈ 68.3 µg/mL); in [15], 62.5 µM (≈ 17.1 µg/mL); in assay [16] it was 250 µM (≈ 68.3 µg/mL).
Regarding `Oc1ccc(Cl)cc1C(=S)NCc1ccc(Cl)c(Cl)c1`, the MIC in [1] worked out at 0.98 µM (≈ 0.34 µg/mL); in assay [2], 3.9 µM (≈ 1.35 µg/mL); in [3], 15.6 µM (≈ 5.41 µg/mL); in [4], 31.2 µM (≈ 10.8 µg/mL); in assay [5], 31.2 µM (≈ 10.8 µg/mL); in [6], 31.2 µM (≈ 10.8 µg/mL). For the same compound, the MIC worked out at 3.9 µM (≈ 1.35 µg/mL) in assay [7]; 15.6 µM (≈ 5.41 µg/mL) in assay [8]; 3.9 µM (≈ 1.35 µg/mL) in assay [9]; 31.2 µM (≈ 10.8 µg/mL) in assay [10]; 3.9 µM (≈ 1.35 µg/mL) in assay [11]; 31.2 µM (≈ 10.8 µg/mL) in [12]. Moreover, the MIC in assay [13] stood at 7.81 µM (≈ 2.71 µg/mL); in assay [14] it was 7.81 µM (≈ 2.71 µg/mL); in [15], 0.98 µM (≈ 0.34 µg/mL); in [16] it was 62.5 µM (≈ 21.7 µg/mL).
Take `Cc1ccc(CNC(=S)c2cc([N+](=O)[O-])ccc2O)cc1`: the MIC in [1] is 62.5 µM (≈ 18.9 µg/mL); in [2], 500 µM (≈ 151 µg/mL); in assay [3], greater than 500 µM; in assay [4], greater than 500 µM; in [5], 500 µM (≈ 151 µg/mL); in assay [6], greater than 500 µM. The MIC was 500 µM (≈ 151 µg/mL) in assay [7]; 500 µM (≈ 151 µg/mL) in [8]; 500 µM (≈ 151 µg/mL) in assay [9]; greater than 500 µM in [10]; greater than 500 µM in assay [11]; greater than 500 µM in assay [12]. In addition, the MIC is 500 µM (≈ 151 µg/mL) in [13], 500 µM (≈ 151 µg/mL) in [14], 62.5 µM (≈ 18.9 µg/mL) in [15] and greater than 500 µM in assay [16].
